Data taken from patent US20040072319A1, “Molecules that modulate ubiquintin-dependent proteolysis and methods for identifying same” (priority 2003, published 2004).
One block for each molecule: values may come before it. Peptide text beside a SMILES is read from it.

Tests used:
Cdc4 [1] = biological target: T1, Cdc4 (Saccharomyces cerevisiae, UniProt P07834); experiment: Capture of Cdc4 from baculovirus-infected insect cell lysates by biotinylated peptide; assay type: binding, yeast; conditions: insect cells infected with Cdc4 baculovirus
T1 construct: made in house; host or cells: Sf9 insect cells infected with recombinant baculovirus (crude lysate)
T1 sequence (P07834 whole entry, looked up): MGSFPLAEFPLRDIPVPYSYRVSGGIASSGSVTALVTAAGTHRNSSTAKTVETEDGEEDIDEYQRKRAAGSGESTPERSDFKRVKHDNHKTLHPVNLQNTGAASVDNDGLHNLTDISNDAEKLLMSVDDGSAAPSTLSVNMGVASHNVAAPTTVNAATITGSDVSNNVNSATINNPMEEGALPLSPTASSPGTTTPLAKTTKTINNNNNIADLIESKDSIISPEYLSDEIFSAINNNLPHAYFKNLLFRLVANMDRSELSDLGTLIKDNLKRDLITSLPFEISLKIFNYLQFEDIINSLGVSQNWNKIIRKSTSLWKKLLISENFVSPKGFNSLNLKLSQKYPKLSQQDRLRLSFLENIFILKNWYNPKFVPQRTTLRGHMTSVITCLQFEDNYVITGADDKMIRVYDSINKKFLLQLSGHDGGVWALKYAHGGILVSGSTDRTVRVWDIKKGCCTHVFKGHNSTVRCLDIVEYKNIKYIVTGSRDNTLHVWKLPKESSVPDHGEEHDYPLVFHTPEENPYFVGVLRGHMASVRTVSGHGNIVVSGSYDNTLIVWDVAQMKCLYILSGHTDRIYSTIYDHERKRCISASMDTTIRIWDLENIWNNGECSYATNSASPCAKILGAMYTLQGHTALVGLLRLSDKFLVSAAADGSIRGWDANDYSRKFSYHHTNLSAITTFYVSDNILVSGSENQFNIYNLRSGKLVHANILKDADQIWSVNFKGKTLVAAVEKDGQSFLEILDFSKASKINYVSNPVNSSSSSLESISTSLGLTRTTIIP
From the text: (§1) SCF complexes were purified from SF9 cells infected with recombinant baculoviruses and used in binding assays and ubiquitination reactions essentially as described (7). Gst-Skp1 expressed in BL21 codon plus cells (Stratagene) then purified on glutathione resin was used to capture full Cdc4 from insect cell lysates. Truncated forms of Cdc4 were enriched prior to Gst-Skp1 capture by affinity purification of hexahistidine fusion proteins on a metal chelate column. The Skp1-Cdc4 complexes were released from the Gst moiety by cleavage with TEV protease and further purified by size exclusion chromatography on a Superdex S75 or S200 column. Biotin labeled […]p[…] (SEQ ID NO. 1), […] (SEQ ID NO. 12), and APPLSQEpTFSDLWK (SEQ ID NO. 13) were synthesized by addition of d-biotin (Sigma) with an Fmoc-e-aminocaproic acid (Bachem) spacer to carboxy-terminal peptides. […] Streptavidin-agarose beads (Sigma) were incubated in the presence of biotinylated peptide for 90 min. at 4° C. Beads were washed 3 times and then incubated with lysates from Cdc4 expressing baculovirus infected Sf9 cells. Beads were washed 4 times, after which SDS-PAGE gel loading buffer was added and the beads were boiled for 5 min. Proteins were separated by SDS-PAGE and visualized by silver stain. […]

SCFcdc4 = biological target: T2, SCFcdc4 (Saccharomyces cerevisiae, UniProt P07834); experiment: In vitro ubiquitination of substrates by SCFcdc4 in presence of peptide; assay type: biochemical, yeast; conditions: excess peptide
T2 construct: made in house; host or cells: SF9 cells infected with recombinant baculoviruses
T2 sequence (P52286 whole entry partner, one chain of several): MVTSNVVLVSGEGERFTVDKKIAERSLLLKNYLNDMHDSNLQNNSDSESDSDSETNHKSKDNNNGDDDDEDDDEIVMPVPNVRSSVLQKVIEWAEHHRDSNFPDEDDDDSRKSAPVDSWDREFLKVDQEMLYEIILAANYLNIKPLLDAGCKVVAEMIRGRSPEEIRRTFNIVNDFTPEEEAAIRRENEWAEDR
T2 sequence (Q12018 whole entry partner, one chain of several): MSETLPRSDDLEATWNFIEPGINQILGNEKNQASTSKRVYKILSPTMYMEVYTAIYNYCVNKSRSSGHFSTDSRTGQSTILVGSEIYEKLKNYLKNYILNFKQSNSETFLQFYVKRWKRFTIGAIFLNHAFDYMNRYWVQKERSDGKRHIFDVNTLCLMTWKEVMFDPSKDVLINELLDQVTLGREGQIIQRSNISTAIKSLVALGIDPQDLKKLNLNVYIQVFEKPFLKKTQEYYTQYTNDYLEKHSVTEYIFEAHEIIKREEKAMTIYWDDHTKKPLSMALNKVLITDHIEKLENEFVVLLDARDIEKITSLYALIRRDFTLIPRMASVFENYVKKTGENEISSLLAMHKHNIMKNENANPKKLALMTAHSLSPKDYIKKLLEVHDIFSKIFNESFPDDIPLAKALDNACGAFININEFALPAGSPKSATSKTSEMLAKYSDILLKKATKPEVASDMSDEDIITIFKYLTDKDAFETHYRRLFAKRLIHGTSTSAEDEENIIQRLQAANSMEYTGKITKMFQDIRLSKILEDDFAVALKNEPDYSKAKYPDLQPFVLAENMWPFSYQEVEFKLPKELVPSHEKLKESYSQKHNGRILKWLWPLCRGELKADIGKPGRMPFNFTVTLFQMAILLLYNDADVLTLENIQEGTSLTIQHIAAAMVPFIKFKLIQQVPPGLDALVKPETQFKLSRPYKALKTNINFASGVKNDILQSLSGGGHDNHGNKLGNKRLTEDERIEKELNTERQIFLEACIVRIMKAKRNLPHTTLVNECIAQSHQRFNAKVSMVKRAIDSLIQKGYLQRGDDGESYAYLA
From the text: as §1

Cdc4 [2] = biological target: T3, Cdc4 (Saccharomyces cerevisiae, UniProt P07834); experiment: Fluorescence polarization equilibrium binding of peptides to Cdc4; parameters: made in house; host or cells: Cdc4: baculovirus-infected insect (Sf9) cells; Gst-Skp1: E. coli BL21 codon plus; species or system yeast; conditions: Hill plot of peptide binding to Cdc4
Experimental: Equilibrium binding constant determination was carried out using fluorescence polarization on a Beacon 2000 Fluorescence Polarization System (Pan Vera, Wis.) equipped with a 100 μL sample chamber. Fluorescein-labeled probes were prepared through the reaction of carboxyterminal-peptides with 5-(and-6)-carboxyfluorescein succinimidyl ester (Molecular Probes), purified by reverse-phase HPLC, and confirmed by mass spectrometry. Binding studies were conducted with 5 nM fluorescein-labeled probe dissolved in PBS containing 100 μg/ml BSA and 1 mM dithiothreitol. Reaction mixtures were allowed to equilibrate for 10 minutes at room temperature prior to each measurement. All fluorescence polarization measurements were conducted at 22° C.
Target sequence in this assay (P52286 whole entry partner, one chain of several): as the sequence (P52286 whole entry partner, one chain of several) above

Cdc4-Skp1 complexes = biological target: T4, Cdc4-Skp1 complexes (Saccharomyces cerevisiae, UniProt P07834); experiment: Peptide out-competition of phosphorylated substrates binding to Cdc4-Skp1; parameters: species or system yeast; conditions: peptide 3, 17, 68 μM in FIG. 6f
T4 construct: made in house; host or cells: insect cells (baculovirus)
T4 sequence (P52286 whole entry partner, one chain of several): as above
From the text: (§2) SCF complexes were purified from SF9 cells infected with recombinant baculoviruses and used in binding assays and ubiquitination reactions essentially as described (7). Gst-Skp1 expressed in BL21 codon plus cells (Stratagene) then purified on glutathione resin was used to capture full Cdc4 from insect cell lysates. Truncated forms of Cdc4 were enriched prior to Gst-Skp1 capture by affinity purification of hexahistidine fusion proteins on a metal chelate column. The Skp1-Cdc4 complexes were released from the Gst moiety by cleavage with TEV protease and further purified by size exclusion chromatography on a Superdex S75 or S200 column. Biotin labeled […]p[…] (SEQ ID NO. 1), […] (SEQ ID NO. 12), and APPLSQEpTFSDLWK (SEQ ID NO. 13) were synthesized by addition of d-biotin (Sigma) with an Fmoc-e-aminocaproic acid (Bachem) spacer to carboxy-terminal peptides. […] Streptavidin-agarose beads (Sigma) were incubated in the presence of biotinylated peptide for 90 min. at 4° C. Beads were washed 3 times and then incubated with lysates from Cdc4 expressing baculovirus infected Sf9 cells. Beads were washed 4 times, after which SDS-PAGE gel loading buffer was added and the beads were boiled for 5 min. Proteins were separated by SDS-PAGE and visualized by silver stain. Peptide out-competition of phosphorylated substrates was carried out with immunopurified Skp1^FLAG-Cdc4 from insect cells, which were incubated with phosphopeptides prior to addition of phospho-Sic1 or phospho-Cyclin E-Cdk2. For kinase inhibition assays, purified recombinant Clb5-Cdc28 complex (30 ng) was incubated with mutant forms of Sic1 (40 ng) and histone H1 (HH1, 2 μg) for 1 h on ice prior to addition of [^32P]-γ-ATP and incubation at 25° C. for 30 min. Samples were separated by SDS-PAGE and visualized by autoradiography.

Cdc4 [3] = biological target: T3, Cdc4; experiment: Capture of Cdc4 from baculovirus-infected insect cell lysates by biotinylated peptide; assay type: binding, yeast; parameters: made in house; host or cells: Sf9 insect cells infected with recombinant baculovirus (crude lysate); conditions: insect cells infected with Cdc4 baculovirus
From the text: as §2

Skp1-Cdc4 complex [4] = biological target: T5, Skp1-Cdc4 complex (yeast, UniProt P07834 1-779; P52286 1-194, limits assumed); experiment: fluorescence polarization, 5 nM fluorescein-labeled peptide, Cdc4/Skp1 titrated
T5 construct: Purified complex (Gst removed by TEV, size exclusion) for fluorescence polarization and SPOTS arrays; also called Cdc4/Skp1; cdc4/skp1 complex
Target sequence in this assay (P52286 whole entry, chain 2 of 2, one chain of several): as the sequence (P52286 whole entry partner, one chain of several) above

[5] = biological target: Cdc4 (yeast F-box protein, recombinant, expressed in baculovirus-infected insect cells) (yeast) (UniProt P07834); experiment: equilibrium binding (Table in FIG. 3)
Skp1-Cdc4 complex [6] = biological target: T5, Skp1-Cdc4 complex; experiment: fluorescence polarization
Target sequence in this assay (P52286 whole entry, one chain of several): as the sequence (P52286 whole entry partner, one chain of several) above

[7] = biological target: Cdc4 (yeast F-box protein, recombinant, expressed in baculovirus-infected insect cells) (yeast) (UniProt P07834); experiment: equilibrium binding, fluorescence polarization
[8] = biological target: Cdc4 (yeast F-box protein, recombinant, expressed in baculovirus-infected insect cells) (yeast) (UniProt P07834); experiment: equilibrium binding
[9] = biological target: T6, Cdc4 (yeast F-box protein, recombinant, expressed in baculovirus-infected insect cells) (yeast, UniProt P07834 1-779); experiment: capture of Gst-Sic1 on Cdc4^FLAG resin, anti-Sic1 blot
T6 construct: also called Cdc4^FLAG
T6 sequence (looked up): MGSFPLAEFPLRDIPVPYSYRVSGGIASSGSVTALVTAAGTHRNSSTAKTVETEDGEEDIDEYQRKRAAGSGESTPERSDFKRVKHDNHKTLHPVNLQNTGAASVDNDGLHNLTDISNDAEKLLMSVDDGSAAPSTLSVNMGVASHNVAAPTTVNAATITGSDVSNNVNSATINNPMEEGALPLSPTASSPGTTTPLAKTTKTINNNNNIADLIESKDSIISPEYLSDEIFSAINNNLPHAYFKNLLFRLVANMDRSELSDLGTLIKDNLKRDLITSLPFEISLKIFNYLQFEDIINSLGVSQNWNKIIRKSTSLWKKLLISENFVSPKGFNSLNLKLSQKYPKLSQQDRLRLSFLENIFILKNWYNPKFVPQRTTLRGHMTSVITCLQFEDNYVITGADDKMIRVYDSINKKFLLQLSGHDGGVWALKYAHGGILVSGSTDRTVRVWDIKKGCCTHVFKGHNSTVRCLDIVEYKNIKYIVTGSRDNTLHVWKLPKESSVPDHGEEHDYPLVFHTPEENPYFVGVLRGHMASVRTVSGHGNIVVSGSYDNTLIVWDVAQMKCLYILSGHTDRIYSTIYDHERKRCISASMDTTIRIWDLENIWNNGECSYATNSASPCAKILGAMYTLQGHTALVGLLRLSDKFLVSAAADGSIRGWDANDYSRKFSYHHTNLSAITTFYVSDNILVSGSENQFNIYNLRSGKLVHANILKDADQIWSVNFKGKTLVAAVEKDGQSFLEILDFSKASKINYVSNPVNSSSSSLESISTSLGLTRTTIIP

Molecule: ASPLPSGLLTPPQSGKKQS [unphosphorylated peptide, biotin labeled unphosphorylated cyclin E1 19 residue control peptide, reference compound]
capture of Cdc4 from lysates by biotinylated peptide (Cdc4 [1]; listed as non-phosphorylated CycE^19-pT380 peptide): does not
capture of Cdc4 from lysates by biotinylated peptide (Cdc4 [1]; listed as unphosphorylated version of the peptide): failed to interact with cdc4

Molecule: CC(C)C[C@H](NC(=O)CNC(=O)[C@H](CO)NC(=O)[C@@H]1CCCN1C(=O)[C@H](CC(C)C)NC(=O)[C@@H]1CCCN1C(=O)[C@H](CO)NC(=O)[C@H](C)N)C(=O)N[C@@H](CC(C)C)C(=O)N[C@H](C(=O)N1CCC[C@H]1C(=O)N1CCC[C@H]1C(=O)N[C@@H](CCC(N)=O)C(=O)N[C@@H](CO)C(=O)NCC(=O)N[C@@H](CCCCN)C(=O)N[C@@H](CCCCN)C(=O)N[C@@H](CCC(N)=O)C(=O)N[C@@H](CO)C(=O)O)[C@@H](C)OP(=O)(O)O [CycE-19mer, ASPLPSGLLpTPPQSGKKQS] (HELM PEPTIDE1{A.S.P.L.P.S.G.L.L.[C[C@@H](OP(=O)(O)O)[C@H](N[*:1])C(=O)[*:2]].P.P.Q.S.G.K.K.Q.S}$$$$V2.0)
block of ubiquitination of SCFcdc4 substrates (SCFcdc4; listed as CycE19-pT380): able to out-compete
block of ubiquitination of SCFcdc4 substrates (SCFcdc4; listed as cycE19P): blocked
Hill coefficient (Cdc4 [2]): 0.99
competition with substrates (Sic1, cyclin E1, Far1) for binding to Cdc4 (Cdc4-Skp1 complexes; listed as CycE19-pT380): able to out-compete
competition with substrates (Sic1, cyclin E1, Far1) for binding to Cdc4 (Cdc4-Skp1 complexes; listed as CycE^19-pT380): out-competes binding of Sic1 and cyclin E1
competition with substrates (Sic1, cyclin E1, Far1) for binding to Cdc4 (Cdc4-Skp1 complexes; listed as cycE19P): able to compete
competition with substrates (Sic1, cyclin E1, Far1) for binding to Cdc4 (Cdc4-Skp1 complexes; listed as cycEpT): inhibits the interaction
competition with substrates (Sic1, cyclin E1, Far1) for binding to Cdc4 (Cdc4-Skp1 complexes; listed as cyclin E phosphopeptide): competed
capture of Cdc4 from lysates by biotinylated peptide (Cdc4 [3]; listed as CycE19-pT380): able to capture Cdc4
capture of Cdc4 from lysates by biotinylated peptide (Cdc4 [3]; listed as CycE^19-pT380): captures recombinant Cdc4
capture of Cdc4 from lysates by biotinylated peptide (Cdc4 [3]; listed as cycE19P): capture of Cdc4
capture of Cdc4 from lysates by biotinylated peptide (Cdc4 [3]; listed as cycEpT19mer): able to precipitate cdc4

Kd (Skp1-Cdc4 complex [4]): 880 nM
Kd [5]: 675 nM
Molecule: Gcn4-9mer FLPpTPVLED (peptide)

fold lower affinity (against the phosphothreonine peptide) (Skp1-Cdc4 complex [6]): 6 fold
fold lower affinity (against the phosphothreonine cyclin E peptide) [7]: 6 fold
Molecule: CycEpS-9mer GLLpSPPQSG (peptide)

Kd (Skp1-Cdc4 complex [4]): 900 nM
Kd [8]: 750 nM
Molecule: Cdc 16 peptide LSKNLLpTPQEEWD

binding result [9]: no binding
B1: Sic1 6m (Sic1^9m with T33, T45 and S76 restored), Gst fusion (other, yeast, UniProt P38634 1-284, looked up)
chain: MAPSAPPRSRGTRYLAQPSGNTSSSALMQGQKTPQKPSQNLVPVTPSTTKSFKNAPLLAPPNSNMGMTAPFNGLTSPQRAPFPKSSVKRTLFQFESHDNGTVREEQEPLGRVNRILFPTQQNVDIDAAEEEEEGEVLLPPSRPTSARQLHLSLERDEFDQTHRKKIIKDVPGAPSDKVITFELAKNWNNNVPKNDARSQESEDEEDIIINPVRVGKNPFASDELVTQEIRNERKRAMLRENPDIEDVITYVNKKGEVVEKRRLTDEEKRRFKPKALFQSRDQEH
modifications: treated with Cln2-Cdc28 kinase
notes: not shown: glutathione S-transferase (Gst) fusion moiety of pGEX-3x

binding result [9]: no binding
B2: Sic1 7m (Sic1^9m with T45 and S76 restored), Gst fusion (other, yeast, UniProt P38634 1-284, looked up)
chain: MAPSAPPRSRGTRYLAQPSGNTSSSALMQGQKAPQKPSQNLVPVTPSTTKSFKNAPLLAPPNSNMGMTAPFNGLTSPQRAPFPKSSVKRTLFQFESHDNGTVREEQEPLGRVNRILFPTQQNVDIDAAEEEEEGEVLLPPSRPTSARQLHLSLERDEFDQTHRKKIIKDVPGAPSDKVITFELAKNWNNNVPKNDARSQESEDEEDIIINPVRVGKNPFASDELVTQEIRNERKRAMLRENPDIEDVITYVNKKGEVVEKRRLTDEEKRRFKPKALFQSRDQEH
modifications: treated with Cln2-Cdc28 kinase
notes: as for B1
